Source: PMC9628899 (Antiviral Research, 2003)
Like-named read-outs stand apart in the source and are kept apart here.

Legend:
cowpox virus (CV) [1] = test: microbe, parasite or virus in culture; assay type: cell-based
cowpox virus (CV) [2] = settings: read-out: EC50 Cowpox; cited from earlier work
in vitro = settings: human
vaccinia virus (VV) [3] = test: microbe, parasite or virus in culture; assay type: cell-based
vaccinia virus (VV) [4] = settings: read-out: EC50 Vaccinia; Table 4; ref Kern et al. (2002); cited from earlier work
Variola = settings: read-out: EC50 Variola; cited from earlier work
Monkeypox = settings: read-out: EC50 Monkeypox; cited from earlier work
vaccinia virus = assay type: in vivo, mice; settings: data not presented
cowpox virus = test system: cowpox virus; parameters: species or system mice; settings: mouse, in vivo
[5] = test system: vaccinia, cowpox, monkeypox, and variola viruses; assay type: cell-based
[6] = Cowpox virus, HFF, read-out: Cowpox virus EC50
[7] = Cowpox virus, HFF, read-out: EC50 CV
[8] = Orthopoxvirus vaccinia, HFF, read-out: EC50 VV
[9] = Orthopoxvirus vaccinia, HFF, read-out: Vaccinia virus EC50

Nc1ccn(C[C@@H](CO)OCP(=O)(O)O)c(=O)n1 [Cidofovir, (S)-1(3-hydroxy-2-phosphonylmethoxypropyl) cytosine]
EC50 (cowpox virus (CV) [1]; [6]): 43 ± 2.5 µM
EC50 (cowpox virus (CV) [1]; [7]): 43 µM
EC50 (cowpox virus (CV) [2]): 44.7 ± 6.3 µM
CC50 (in vitro): 278 ± 9.2 µM
EC50 (vaccinia virus (VV) [3]; [8]): 33 µM
EC50 (vaccinia virus (VV) [3]; [9]): 33 ± 9.1 µM
EC50 (vaccinia virus (VV) [4]): 46.2 ± 11.9 µM
EC50 (Variola): 27.3 µM
EC50 (Monkeypox): 4.6 µM

Nc1ncnc2c1ncn2CCOCP(=O)(O)O [Adefovir, 9-(2-phosphonylmethoxyethyl)adenine]
EC50 (cowpox virus (CV) [1]; [6]): > 366 µM
EC50 (cowpox virus (CV) [1]; [7]): > 300 µM
CC50 (in vitro): > 366 µM
EC50 (vaccinia virus (VV) [3]; [8]): > 300 µM
EC50 (vaccinia virus (VV) [3]; [9]): > 366 µM

NC(=O)c1ncn([C@@H]2O[C@H](CO)[C@@H](O)[C@H]2O)n1 [Ribavirin]
EC50 (cowpox virus (CV) [1]; [7]): > 400 µM
EC50 (vaccinia virus (VV) [3]; [8]): 280 µM

Nc1nc(N)c2ncn([C@H]3CO[C@@H](CO)O3)c2n1 [Amdoxovir]
EC50 (cowpox virus (CV) [1]; [7]): > 300 µM
EC50 (vaccinia virus (VV) [3]; [8]): > 300 µM

CCOC(=O)C(C)NP1(=O)COC(Cn2ccc(N)nc2=O)CO1 (single isomer, unassigned; isomer i) [Ethyl alaninyl cyclic HPMPC—isomer I, Ethyl alaninyl cyclic HPMPC]
EC50 (cowpox virus (CV) [1]; read-out: Cowpox virus EC50): 27 ± 6.5 µM
CC50 (HFF cells): > 276 µM
EC50 (vaccinia virus (VV) [3]; read-out: Vaccinia virus EC50): 15 ± 13 µM

Nc1nc(N)c2ncn(CCOCP(=O)(O)O)c2n1 [PMEDAP]
EC50 (cowpox virus (CV) [1]; [6]): > 347 µM
CC50 (in vitro): > 339 µM
EC50 (vaccinia virus (VV) [3]; [9]): 204 ± 15 µM

C[C@H](Cn1cnc2c(N)ncnc21)OCP(=O)(O)O [PMPA, (R)-9-(2-phosphonylmethoxypropyl)adenine]
EC50 (cowpox virus (CV) [1]; [6]): > 300 µM
CC50 (in vitro): > 300 µM
EC50 (vaccinia virus (VV) [3]; [9]): > 300 µM

Nc1nc(O)c2ncn(COC(CO)CO)c2n1 [Ganciclovir]
EC50 (cowpox virus (CV) [1]; [7]): > 300 µM
EC50 (vaccinia virus (VV) [3]; [8]): > 300 µM

CC(=O)OCC(CCn1cnc2cnc(N)nc21)COC(C)=O [Famciclovir]
EC50 (cowpox virus (CV) [1]; [7]): > 300 µM
EC50 (vaccinia virus (VV) [3]; [8]): > 300 µM

O=C(O)P(=O)(O)O [Foscarnet]
EC50 (cowpox virus (CV) [1]; [7]): > 300 µM
EC50 (vaccinia virus (VV) [3]; [8]): > 300 µM

CCOC(=O)C(C)NP1(=O)COC(Cn2ccc(N)nc2=O)CO1 (single isomer, unassigned; isomer ii) [Ethyl alaninyl cyclic HPMPC—isomer II, Ethyl alaninyl cyclic HPMPC]
EC50 (cowpox virus (CV) [1]; read-out: Cowpox virus EC50): 26 ± 3.5 µM
CC50 (HFF cells): > 278 µM
EC50 (vaccinia virus (VV) [3]; read-out: Vaccinia virus EC50): 15 ± 11 µM

CCCCOC(=O)[C@H](C)NP(=O)(COCCn1cnc2c(N)ncnc21)N[C@@H](C)C(=O)OCCCC [Bis(butylalaninyl)PMEA]
EC50 (cowpox virus (CV) [1]; read-out: Cowpox virus EC50): 10 ± 8.2 µM
CC50 (HFF cells): 100 ± 27 µM
EC50 (vaccinia virus (VV) [3]; read-out: Vaccinia virus EC50): 4.4 ± 0.2 µM

O=c1[nH]c(=O)n([C@H]2C[C@H](O)[C@@H](CO)O2)cc1I [Idoxuridine]
EC50 (cowpox virus (CV) [1]; [7]): 2 µM
EC50 (vaccinia virus (VV) [3]; [8]): 6 µM

Nc1ccn(C[C@H]2COP(=O)(O)CO2)c(=O)n1 [Cyclic HPMPC (cHPMPC), Cyclic HPMPC]
EC50 (cowpox virus (CV) [1]; [6]): 48 ± 8 µM
EC50 (cowpox virus (CV) [2]): 48.3 ± 8 µM
CC50 (in vitro): > 302 µM
EC50 (vaccinia virus (VV) [3]; [9]): 38 ± 11 µM
EC50 (vaccinia virus (VV) [4]): 50.6 ± 13.1 µM
EC50 (Variola): 45.8 µM
EC50 (Monkeypox): 63.6 µM

Nc1nc2c(ncn2CCC(CO)CO)c(=O)[nH]1 [Penciclovir]
EC50 (cowpox virus (CV) [1]; [7]): > 300 µM
EC50 (vaccinia virus (VV) [3]; [8]): > 300 µM

Nc1ncnc2c1ncn2C[C@@H](CO)OCP(=O)(O)O [HPMPA, (S)-9-(3-hydroxy-2-phosphonylmethoxypropyl)adenine]
EC50 (cowpox virus (CV) [1]; read-out: Cowpox virus EC50): 5 ± 4.7 µM
CC50 (HFF cells): 269 ± 21 µM
fold more active than CDV (vaccinia virus (VV) [3]): about 10 fold
EC50 (vaccinia virus (VV) [3]; read-out: Vaccinia virus EC50): 3.5 ± 2.8 µM

Nc1ncnc2c1ncn2[C@@H]1O[C@H](CO)[C@@H](O)[C@@H]1O [Vidarabine]
activity in murine model of vaccinia virus infection (vaccinia virus): not active
activity in murine model of cowpox virus infection (cowpox virus): not active

CCCCCCCCCCCCCCCCOCCCOP1(=O)COC(Cn2ccc(N)nc2=O)CO1 (stereo not drawn) [HDP-cCDV, 3-hexadecyloxy-l-propanol cyclic CDV]
EC50 (cowpox virus (CV) [2]): 2.1 ± 1.9 µM
EC50 (vaccinia virus (VV) [4]): 3.8 ± 1.5 µM
EC50 (Variola): 0.9 µM
active at levels -fold less than the parent molecules [5]: 50- to 200 fold
EC50 (Monkeypox): 1.8 µM

O=c1[nH]c(=O)n([C@@H]2O[C@H](CO)[C@@H](O)[C@@H]2F)cc1I [Fialuridine]
EC50 (cowpox virus (CV) [1]; [7]): 0.24 µM
EC50 (vaccinia virus (VV) [3]; [8]): 1.5 µM

C[C@H](NP1(=O)CO[C@@H](Cn2ccc(N)nc2=O)CO1)C(=O)OCCc1ccccc1 (stereo partly drawn) [Phenethyl alaninyl cyclic HPMPC—mixture, Phenethyl alaninyl cyclic HPMPC]
EC50 (cowpox virus (CV) [1]; read-out: Cowpox virus EC50): 6.8 ± 1.8 µM
CC50 (HFF cells): 207 ± 18 µM
EC50 (vaccinia virus (VV) [3]; read-out: Vaccinia virus EC50): 7.1 ± 0.3 µM
